Molecules are shown by their SMILES.

In this experiment the target is T1, human IDO1 (Homo sapiens, UniProt P14902).
T1 construct: expressed in transfected cells
T1 sequence (P14902 whole entry): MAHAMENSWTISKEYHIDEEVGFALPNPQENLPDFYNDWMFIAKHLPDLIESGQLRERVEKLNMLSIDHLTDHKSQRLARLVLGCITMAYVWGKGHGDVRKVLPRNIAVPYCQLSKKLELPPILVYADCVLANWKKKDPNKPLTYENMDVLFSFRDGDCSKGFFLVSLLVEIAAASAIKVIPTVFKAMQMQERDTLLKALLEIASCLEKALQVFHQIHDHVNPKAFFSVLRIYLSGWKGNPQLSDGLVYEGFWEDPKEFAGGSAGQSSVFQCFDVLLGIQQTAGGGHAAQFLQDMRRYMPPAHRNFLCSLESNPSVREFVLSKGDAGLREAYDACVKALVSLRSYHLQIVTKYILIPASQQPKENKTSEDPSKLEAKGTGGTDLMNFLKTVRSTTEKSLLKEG
Briefly: HEK293 human IDO1 cell-based IDO inhibition assay. The following applies: read-out: HEK Human IDO-1 Potency. The procedure: 1HEK293 cells were transfected with a pCDNA-based mammalian expression vector harboring human IDO1 cDNA (NM 002164.2) by electroporation. They were cultured in medium (DMEM with 10% FBS) containing 1 mg/ml G418 for two weeks. Clones of HEK293 cells that stably expressed human IDO1 protein were selected and expanded for IDO inhibition assay.
The human IDOL/HEK293 cells were seeded at 10,000 cells per 50 μL per well with RPMI/phenol red free media contains 10% FBS in a 384-well black wall clear bottom tissue culture plate (Matrix Technologies LLC) 100 nL of certain concentration of compound was then added to each well using ECHO liquid handling systems. The cells were incubated for 20 hours in 37° C. incubator with 5% CO2.
The compound treatments were stopped by adding Trichloroacetic Acid (Sigma-Aldrich) to a final concentration at 0.2%. The cell plate was further incubated at 50° C. for 30 minute. The equal volume supernatant (20 μL) and 0.2% (w/v) Ehrlich reagent (4-dimethylaminobenzaldehyde, Sigma-Aldrich) in glacial acetic acid were mixed in a new clear bottom 384-well plate. This plate was then incubated at room temperature for 30 minute. The absorbance at 490 nm was measured on Envision plate reader.
Regarding `CC(C(=O)O)c1ccc(C[C@@H](C(=O)Nc2ccc(Cl)cc2)[C@H]2CC[C@@H](c3ccnc4ccc(F)cc43)CC2)cc1` (mixture of isomers) [Example 137, 2-(4-((R)-3-((4-Chlorophenyl)amino)-2-((cis)-4-(6-fluoroquinolin-4-yl)cyclohexyl)-3-oxopropyl)phenyl)propanoic Acid], the IC50 was less than 50 nM.

For the compound `CCC(C(=O)Nc1ccc(Cl)cc1)C1CCC(c2ccnc3ccc(F)cc23)CC1` (mixture of isomers) [Example 154, N-(4-Chlorophenyl)-2-(4-(6-fluoroquinolin-4-yl)cyclohexyl)butanamide], the IC50 was less than 50 nM. Turning to `CCC(C(=O)Nc1ccc(Cl)cc1)[C@H]1CC[C@H](Oc2ccnc3cc(C(F)(F)F)ccc23)CC1` (mixture of isomers) [Example 83, (±)—N-(4-Chlorophenyl)-2-((trans)-4-((7-(trifluoromethyl)quinolin-4-yl)oxy)cyclohexyl)butanamide], the IC50 is less than 250 nM. Take `CCC(C(=O)Nc1ccc(Cl)cc1)[C@H]1CC[C@H](Oc2cc(C(F)(F)F)nc3ccccc23)CC1` (mixture of isomers) [Example 84, (±)—N-(4-Chlorophenyl)-2-((trans)-4-((2-(trifluoromethyl)quinolin-4-yl)oxy)cyclohexyl)butanamide]: the IC50 is greater than 250 nM. As for `CCC(C(=O)Nc1ccc(Cl)cc1)[C@H]1CC[C@H](Oc2ccnc3ccccc23)CC1` (mixture of isomers) [Example 85, (±)—N-(4-Chlorophenyl)-2-((trans)-4-(quinolin-4-yloxy)cyclohexyl)butanamide], the IC50 was less than 50 nM. As for `CCC(C(=O)Nc1ccc(Cl)cc1)[C@H]1CC[C@@H](Oc2cc(C(F)(F)F)nc3ccccc23)CC1` (mixture of isomers) [Example 88, (±)—N-(4-Chlorophenyl)-2-((cis)-4-((2-(trifluoromethyl)quinolin-4-yl)oxy)cyclohexyl)butanamide], the IC50 was less than 50 nM. To `CCC(C(=O)Nc1ccc(Cl)cc1)[C@H]1CC[C@@H](Oc2ccnc3ccc(C(F)(F)F)cc23)CC1` (mixture of isomers) [Example 89, (±)—N-(4-Chlorophenyl)-2-((cis)-4-((6-(trifluoromethyl)quinolin-4-yl)oxy)cyclohexyl)butanamide] belongs greater than 250 nM.

`Cc1ccc(NC(=O)C(C)N2CCC(Oc3ccc4nccc(Cl)c4c3)CC2)cc1` (racemic) [Example 92, (±)-2-(4-((4-Chloroquinolin-6-yl)oxy)piperidin-1-yl)-N-(p-tolyl)propanamide]: the IC50 was greater than 250 nM.

Take `CC(C(=O)Nc1ccc(Cl)cc1)N1CCC(Oc2ccnc3ccc(F)cc23)CC1` (racemic) [Example 96, (±)—N-(4-Chlorophenyl)-2-(4-((6-fluoroquinolin-4-yl)oxy)piperidin-1-yl)propanamide]: the IC50 is less than 50 nM. With `CC(C)C(C(=O)Nc1ccc(Cl)cc1)N1CCC(Oc2ccnc3ccc(F)cc23)CC1` (racemic) [Example 102, (±)—N-(4-Chlorophenyl)-2-(4-((6-fluoroquinolin-4-yl)oxy)piperidin-1-yl)-3-methylbutanamide], the IC50 is greater than 250 nM. To `CC(C(=O)Nc1ccc(Cl)cc1)N1CCN(c2ccnc3ccc(F)cc23)CC1` (racemic) [Example 126, (±)—N-(4-Chlorophenyl)-2-(4-(6-fluoroquinolin-4-yl)piperazin-1-yl)propanamide] belongs greater than 250 nM. To `CC(C(=O)Nc1ccc(Br)cc1)N1CCN(c2ccnc3ccc(F)cc23)CC1` (racemic) [Example 127, (±)—N-(4-Bromophenyl)-2-(4-(6-fluoroquinolin-4-yl)piperazin-1-yl)propanamide] belongs greater than 250 nM; to `CC(C(=O)Nc1ccccc1)N1CCN(c2ccnc3ccc(F)cc23)CC1` (racemic) [Example 128, (±)-2-(4-(6-Fluoroquinolin-4-yl)piperazin-1-yl)-N-phenylpropanamide], greater than 250 nM.

With `CCC(C(=O)Nc1ccc(Cl)cc1)N1CCN(c2ccnc3ccc(F)cc23)CC1` (racemic) [Example 131, (±)—N-(4-Chlorophenyl)-2-(4-(6-fluoroquinolin-4-yl)piperazin-1-yl)butanamide], the IC50 is less than 50 nM.

With `CCC(C(=O)Nc1ccccc1)N1CCN(c2ccnc3ccc(F)cc23)CC1` (racemic) [Example 132, (±)-2-(4-(6-Fluoroquinolin-4-yl)piperazin-1-yl)-N-phenylbutanamide], the IC50 was greater than 250 nM. `COCC(C(=O)Nc1ccc(Cl)cc1)N1CCN(c2ccnc3ccc(F)cc23)CC1` (racemic) [Example 133, (±)—N-(4-Chlorophenyl)-2-(4-(6-fluoroquinolin-4-yl)piperazin-1-yl)-3-methoxypropanamide]: the IC50 is greater than 250 nM. Under `COCC(C(=O)Nc1ccc(F)cc1)N1CCN(c2ccnc3ccc(F)cc23)CC1` (racemic) [Example 134, (±)—N-(4-Fluorophenyl)-2-(4-(6-fluoroquinolin-4-yl)piperazin-1-yl)-3-methoxypropanamide] stands less than 250 nM; under `CC(C(=O)Nc1ccc(Cl)cc1)C1CCC(c2ccnc3ccnn23)CC1` (racemic) [Example 143, (±)—N-(4-chlorophenyl)-2-(cis- and trans-4-(pyrazolo[1,5-a]pyrimidin-7-yl)cyclohexyl)propanamide], less than 250 nM. To `CC(C(=O)Nc1ccc(Cl)cc1)C1CCC(c2ccnc3ncccc23)CC1` (racemic) [Example 147, (±)-2-(Cis- and trans-4-(1,8-naphthyridin-4-yl)cyclohexyl)-N-(4-chlorophenyl)propanamide] belongs less than 50 nM; to `CC(C(=O)Nc1ccc(Cl)cc1)C1CCC(c2ccnc3cn[nH]c23)CC1` (racemic) [Example 149, (±)-2-(Cis- and trans-4-(1H-pyrazolo[4,3-b]pyridin-7-yl)cyclohexyl)-N-(4-chlorophenyl)propanamide], less than 50 nM. Regarding `CC(C(=O)Nc1ccc(Cl)cc1)[C@H]1CC[C@H](Oc2ccnc3ncccc23)CC1` (mixture of isomers) [Example 153, (±)-2-((trans)-4-((1,8-Naphthyridin-4-yl)oxy)cyclohexyl)-N-(4-chlorophenyl)propanamide], the IC50 is less than 50 nM.

On to `CC(C(=O)Nc1ccc(Cl)cc1)[C@]1(F)CC[C@H](c2ccnc3ccc(F)cc32)CC1` (mixture of isomers) [Example 233, (+/−)—N-(4-chlorophenyl)-2-(trans-1-fluoro-4-(6-fluoroquinolin-4-yl)cyclohexyl) propanamide], for which the IC50 was less than 50 nM. As for `CCC(C(=O)Nc1ccc(Cl)cc1)C1CCN(c2ccnc3ccc(F)cc23)CC1` (racemic) [Example 243, (±)—N-(4-Chlorophenyl)-2-(1-(6-fluoroquinolin-4-yl)piperidin-4-yl)butanamide], the IC50 is greater than 250 nM. As for `CCCC(C(=O)Nc1ccc(Cl)cc1)N1CCN(c2ccnc3ccc(F)cc23)CC1` (racemic) [Example 244, (±)—N-(4-Chlorophenyl)-2-(4-(6-fluoroquinolin-4-yl)piperazin-1-yl)pentanamide], the IC50 was less than 250 nM. As for `CCCC(C(=O)NC1(C)CCCCC1)N1CCN(c2ccnc3ccc(F)cc23)CC1` (racemic) [Example 247, (±)-2-(4-(6-Fluoroquinolin-4-yl)piperazin-1-yl)-N-(1-methylcyclohexyl)pentanamide], the IC50 is greater than 250 nM. In the case of `CCC(C(=O)Nc1ccc(Cl)cc1)[C@H]1CC[C@H](Oc2ccnc3cc(C(F)(F)F)ccc23)CC1` (single isomer, unassigned) [Example 83a, N-(4-Chlorophenyl)-2-((trans)-4-((7-(trifluoromethyl)quinolin-4-yl)oxy)cyclohexyl)-2-butanamide], the IC50 was greater than 250 nM. On to `CCC(C(=O)Nc1ccc(Cl)cc1)[C@H]1CC[C@H](Oc2ccnc3cc(C(F)(F)F)ccc23)CC1` (single isomer, unassigned) [Example 83b, N-(4-Chlorophenyl)-2-((trans)-4-((7-(trifluoromethyl)quinolin-4-yl)oxy)cyclohexyl)-2-butanamide], for which the IC50 was less than 250 nM. In the case of `CC(C(=O)O)c1ccc(C[C@@H](C(=O)Nc2ccc(Cl)cc2)[C@H]2CC[C@@H](c3ccnc4ccccc43)CC2)cc1` (single isomer, unassigned) [Example 87a], the IC50 is less than 50 nM. To `CCC(C(=O)Nc1ccc(Cl)cc1)[C@H]1CC[C@@H](Oc2cc(C(F)(F)F)nc3ccccc23)CC1` (single isomer, unassigned) [Example 88a, N-(4-Chlorophenyl)-2-((cis)-4-((2-(trifluoromethyl)quinolin-4-yl)oxy)cyclohexyl)butanamide] belongs less than 50 nM. In the case of `CCC(C(=O)Nc1ccc(Cl)cc1)[C@H]1CC[C@@H](Oc2cc(C(F)(F)F)nc3ccccc23)CC1` (single isomer, unassigned) [Example 88b, N-(4-Chlorophenyl)-2-((cis)-4-((2-(trifluoromethyl)quinolin-4-yl)oxy)cyclohexyl)butanamide], the IC50 was less than 250 nM.

Take `CCC(C(=O)Nc1ccc(Cl)cc1)[C@H]1CC[C@@H](Oc2ccnc3ccc(C(F)(F)F)cc23)CC1` (single isomer, unassigned) [Example 89a, N-(4-Chlorophenyl)-2-((cis)-4-((6-(trifluoromethyl)quinolin-4-yl)oxy)cyclohexyl)butanamide]: the IC50 was less than 250 nM.

(Values after patent US20180282281A1, “IMMUNOREGULATORY AGENTS” (FLEXUS BIOSCIENCES, INC., priority 2014, published 2018).)
